Where a name gives a salt, the structure may show the parent alone. Read-outs that look alike come from different tables or passages of the source.
What was measured:
[1] = molecular target: T1, human 5-hydroxytryptamine2C (h5HT2C) receptor (Homo sapiens, UniProt P28335); test: 5HT2C receptor binding ([125I]DOI displacement, CHO cell membranes)
T1 construct: expressed in transfected cells; host or cells: CHO (Chinese Hamster Ovary) cells; membrane preparation
T1 sequence (P28335 33-458): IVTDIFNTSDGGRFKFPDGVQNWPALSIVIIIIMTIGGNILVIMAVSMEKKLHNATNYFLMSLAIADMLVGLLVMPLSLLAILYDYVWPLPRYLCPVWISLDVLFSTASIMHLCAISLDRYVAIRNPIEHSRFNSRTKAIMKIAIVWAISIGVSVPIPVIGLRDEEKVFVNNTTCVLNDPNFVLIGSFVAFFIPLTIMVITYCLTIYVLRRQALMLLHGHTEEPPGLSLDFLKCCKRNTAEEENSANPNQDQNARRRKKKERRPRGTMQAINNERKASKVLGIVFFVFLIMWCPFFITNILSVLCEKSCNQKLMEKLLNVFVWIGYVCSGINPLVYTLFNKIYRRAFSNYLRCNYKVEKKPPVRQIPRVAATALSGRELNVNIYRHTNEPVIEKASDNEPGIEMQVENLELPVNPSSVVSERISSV

human 5-HT2C receptor = molecular target: T2, human 5-HT2C receptor (Homo sapiens, UniProt P28335); test: Calcium mobilization in response to 5-HT2C receptor agonists (FLIPR, CHO cells); format: cell-based; conditions: for Emax: CHO, read-out: 5-HT2C Function Emax (%) (5-HT, 100%); for EC50: calcium mobilization, CHO cells stably expressing human 5-HT2C, read-out: 5-HT2C Function EC50
T2 sequence (P28335 33-458): T1 sequence (P28335 33-458)

Row | SMILES | Ki [1] | further results
1 | Fc1ccc2c3c1C1CCCCCC1CN3CCNC2 (stereo not shown) [Example 28, 1-fluoro-4,5,6,7,9,9a,10,11,12,13,14,14a-dodecahydrocyclohepta[c][1,4]diazepino[6,7,1-ij]quinoline hydrochloride] | 169 nM | 
2 | Brc1cc2c3c(c1)C1CCCCCC1CN3CCNC2 (stereo not shown) [Example 16, 2-bromo-4,5,6,7,9,9a,10,11,12,13,14,14a-dodecahydrocyclohepta[c][1,4]diazepino[6,7,1-ij]quinoline hydrochloride] | 2300 nM | 
3 | Clc1cc2c3c(c1)C1CCCCCC1CN3CCNC2 (stereo not shown) [Example 20, 2-chloro-4,5,6,7,9,9a,10,11,12,13,14,14a-dodecahydrocyclohepta[c][1,4]diazepino[6,7,1-ij]quinoline hydrochloride] | 373 nM | 
4 | c1cc2c3c(c1)C1CCCCC1CN3CCNC2 (stereo not shown) [Example 6, 4,5,6,7,9a,10,11,12,13,13a-decahydro-9H-[1,4]diazepino[6,7,1-de]phenanthridine hydrochloride] | 24 nM | Emax (human 5-HT2C receptor): 60%; EC50 (human 5-HT2C receptor): 65 nM
5 | c1ccc(-c2cc3c4c(c2)C2CCCC2CN4CCNC3)cc1 (stereo not shown) [Example 22, 2-phenyl-4,5,6,7,9,9a,10,11,12,12a-decahydrocyclopenta[c][1,4]diazepino[6,7,1-ij]quinoline hydrochloride] | 88 nM | 
6 | COc1cc2c3c(c1F)C1CCCCCC1CN3CCNC2 (stereo not shown) [Example 34, 1-fluoro-2-methoxy-4,5,6,7,9,9a,10,11,12,13,14,14a-dodecahydrocyclohepta[c][1,4]diazepino[6,7,1-ij]quinoline hydrochloride] | 249 nM | 
7 | COc1cc(CC(C)N)c(OC)cc1I (stereo not shown) [[^125I]DOI, reference compound] |  | Kd ([1]; read-out: dissociation constant, KD of [125I]DOI at the human serotonin 5HT2C receptor, saturation binding with increasing concentrations of [125I]DOI): 0.4 nM
8 | COc1cc2c3c(c1)C1CCCC1CN3CCNC2 (stereo not shown) [Example 24, 2-methoxy-4,5,6,7,9,9a,10,11,12,12a-decahydrocyclopenta[c][1,4]diazepino[6,7,1-ij]quinoline hydrochloride] | 199 nM | 
9 | Fc1ccc2c3c1C1CCCC1CN3CCNC2 (stereo not shown) [Example 26, 1-fluoro-4,5,6,7,9,9a,10,11,12,12a-decahydrocyclopenta[c][1,4]diazepino[6,7,1-ij]quinoline hydrochloride] | 20 nM | 
10 | CSc1ccc2c(c1)C(N1CCN(C)CC1)Cc1ccccc1S2 (stereo not shown) [Methiothepin, reference compound] |  | Ki ([1]; [125I]DOI binding, CHO membranes expressing h5HT2C, 95% confidence interval in brackets, read-out: Ki (95% confidence interval), reference compounds): 4.6 nM
11 | c1cc2c3c(c1)C1CCCCCC1CN3CCNC2 (stereo not shown) [Example 8, 4,5,6,7,9,9a,10,11,12,13,14,14a-dodecahydrocyclohepta[c][1,4]diazepino[6,7,1-ij]quinoline] | 13 nM | Emax (human 5-HT2C receptor): 70%; EC50 (human 5-HT2C receptor): 261 nM
12 | COc1cc2c3c(c1F)C1CCCC1CN3CCNC2 (stereo not shown) [Example 32, 1-fluoro-2-methoxy-4,5,6,7,9,9a,10,11,12,12a-decahydrocyclopenta[c][1,4]diazepino[6,7,1-ij]quinoline hydrochloride] | 223 nM | 
13 | c1cc2c3c(c1)[C@@H]1CCCCC[C@@H]1CN3CCNC2 [Example 12, (9aS,14aR)-4,5,6,7,9,9a,10,11,12,13,14,14a-dodecahydrocyclohepta[c][1,4]diazepino[6,7,1-ij]quinoline hydrochloride] | 117 nM | 
14 | FC(F)(F)c1ccc2c3c1C1CCCC1CN3CCNC2 (stereo not shown) [Example 30, 1-(trifluoromethyl)-4,5,6,7,9,9a,10,11,12,12a-decahydrocyclopenta[c][1,4]diazepino[6,7,1-ij]quinoline hydrochloride] | 59 nM | 
15 | c1cc2c3c(c1)[C@H]1CCCCC[C@H]1CN3CCNC2 [Example 10, (9aR,14aS)-4,5,6,7,9,9a10,11,12,13,14,14a-dodecahydrocyclohepta[c][1,4]diazepino[6,7,1-ij]quinoline hydrochloride] | 56 nM | 
16 | c1cc2c3c(c1)C1CCCC1CN3CCNC2 (single isomer, unassigned; (-)) [Example 4, (−)-4,5,6,7,9,9a10,11,12,12a-decahydrocyclopenta[c][1,4]diazepino[6,7,1-ij]quinoline] | 3 nM | Emax (human 5-HT2C receptor): 100%; EC50 (human 5-HT2C receptor): 8 nM

From US7687620B2, “[1,4]diazepino[6,7,1-IJ]quinoline derivatives as antipsychotic and antiobesity agents” (Wyeth LLC, priority 2002, dated 2010)
